Measured values taken from patent publication US10975093B2, “Fused 1,4-diazepines as BET protein degraders” (THE REGENTS OF THE UNIVERSITY OF MICHIGAN, priority 2016, dated 2021).

Tests used:
MOLM-13 = assay: Cell growth inhibition, CellTiter-Glo Luminescent Cell Viability Assay, MOLM-13; format: cell-based; conditions: MOLM-13 cells, 4 days incubation
Description: (§1) Cell growth inhibitory activity of representative Compounds of the Disclosure was determined in various cell lines using CellTiter-Glo® Luminescent Cell Viability Assay. Cells were seeded in 384-well white opaque cell culture plates at a density of 2,000 cells/well with serially diluted compounds and incubated at 37° C. in an atmosphere of 95% air and 5% CO2 for 4 days. Cell viability was determined using the CellTiter-Glo® Luminescent Cell Viability Assay Kit (Promega, Madison, Wis.) according to the manufacture's instruction. Briefly, a volume of CellTiter-Glo® Reagent equal to the volume of cell culture medium was added to each well, and then the plates were incubated at room temperature for 10-20 minutes. The luminescent signal was measured using a Tecan Infinite M1000 multimode microplate reader (Tecan, Morrisville, N.C.). The half maximal inhibitory concentration (IC50) was calculated using the GraphPad Prism 5 software (GraphPad Software, La Jolla, Calif.).

MDA-MB-231 = assay: Cell growth inhibition, CellTiter-Glo Luminescent Cell Viability Assay, MDA-MB-231; format: cell-based; conditions: MDA-MB-231 cells, 4 days incubation
Description: as §1

SMILES | IC50 (MOLM-13; Homo sapiens, MOLM-13, 96 h) [nM] | IC50 (MDA-MB-231; Homo sapiens, MDA-MB-231, 96 h) [nM] | IC50 (MOLM-13) [nM] | IC50 (MDA-MB-231) [nM]
Cc1c(C#Cc2cnn(CCCC#Cc3cccc4c3C(=O)N(C3CCCNC3=O)C4=O)c2)sc2c1C(c1ccc(Cl)cc1)=N[C@@H](C)c1nnc(C)n1-2 (stereo partly drawn) [compound 160, 4-(5-(4-(((S)-4-(4-chlorophenyl)-3,6,9-trimethyl-6H-thieno[3,2-f][1,2,4]triazolo[4,3-a][1,4]diazepin-2-yl)ethynyl)-1H-pyrazol-1-yl)pent-1-yn-1-yl)-2-(2-oxopiperidin-3-yl)isoindoline-1,3-dione] | 42.6 | 58.8 | – | –
Cc1c(C#Cc2ccc(CCCC#Cc3cccc4c3CN(C3CCC(=O)NC3=O)C4=O)nc2)sc2c1C(c1ccc(Cl)cc1)=N[C@@H](C)c1nnc(C)n1-2 (stereo partly drawn) [compound 166, 3-(4-(5-(5-(((S)-4-(4-chlorophenyl)-3,6,9-trimethyl-6H-thieno[3,2-f][1,2,4]triazolo[4,3-a][1,4]diazepin-2-yl)ethynyl)pyridin-2-yl)pent-1-yn-1-yl)-1-oxoisoindolin-2-yl)piperidine-2,6-dione] | 0.9 | 0.6 | – | –
Cc1c(C#Cc2ccc(CN3CCC(CNc4cccc5c4CN(C4CCC(=O)NC4=O)C5=O)CC3)cn2)sc2c1C(c1ccc(Cl)cc1)=NCc1nnc(C)n1-2 (stereo not drawn) [compound 167, 3-(4-(((1-((6-((4-(4-chlorophenyl)-3,9-dimethyl-6H-thieno[3,2-f][1,2,4]triazolo[4,3-a][1,4]diazepin-2-yl)ethynyl)pyridin-3-yl)methyl)piperidin-4-yl)methyl)amino)-1-oxoisoindolin-2-yl)piperidine-2,6-dione] | 6.2 | 7.2 | – | –
Cc1c(C#Cc2cnn(C[C@H]3CC[C@H](Nc4cccc5c4CN(C4CCC(=O)NC4=O)C5=O)CC3)c2)sc2c1C(c1ccc(Cl)cc1)=N[C@@H](C)c1nnc(C)n1-2 (stereo partly drawn) [compound 171, 3-(4-(((1S,4r)-4-((4-(((S)-4-(4-chlorophenyl)-3,6,9-trimethyl-6H-thieno[3,2-f][1,2,4]triazolo[4,3-a][1,4]diazepin-2-yl)ethynyl)-1H-pyrazol-1-yl)methyl)cyclohexyl)amino)-1-oxoisoindolin-2-yl)piperidine-2,6-dione] | 0.6 | 0.9 | 0.8 | 1
Cc1c(C#Cc2cnn(C[C@H]3CC[C@@H](Nc4cccc5c4CN(C4CCC(=O)NC4=O)C5=O)CC3)c2)sc2c1C(c1ccc(Cl)cc1)=N[C@@H](C)c1nnc(C)n1-2 (stereo partly drawn) [compound 172, 3-(4-(((1R,4s)-4-((4-(((S)-4-(4-chlorophenyl)-3,6,9-trimethyl-6H-thieno[3,2-f][1,2,4]triazolo[4,3-a][1,4]diazepin-2-yl)ethynyl)-1H-pyrazol-1-yl)methyl)cyclohexyl)amino)-1-oxoisoindolin-2-yl)piperidine-2,6-dione] | 2.3 | 4.4 | – | –
Cc1c(C#Cc2cnn(C[C@H]3C[C@H](Nc4cccc5c4CN(C4CCC(=O)NC4=O)C5=O)C3)c2)sc2c1C(c1ccc(Cl)cc1)=N[C@@H](C)c1nnc(C)n1-2 (stereo partly drawn) [compound 173, 3-(4-(((1S,3r)-3-((4-(((S)-4-(4-chlorophenyl)-3,6,9-trimethyl-6H-thieno[3,2-f][1,2,4]triazolo[4,3-a][1,4]diazepin-2-yl)ethynyl)-1H-pyrazol-1-yl)methyl)cyclobutyl)amino)-1-oxoisoindolin-2-yl)piperidine-2,6-dione] | 3.3 | 4.6 | – | –
Cc1c(C#Cc2cnn(CCN3CC(CNc4cccc5c4CN(C4CCC(=O)NC4=O)C5=O)C3)c2)sc2c1C(c1ccc(Cl)cc1)=N[C@@H](C)c1nnc(C)n1-2 (stereo partly drawn) [compound 175, 3-(4-(((1-(2-(4-(((S)-4-(4-chlorophenyl)-3,6,9-trimethyl-6H-thieno[3,2-f][1,2,4]triazolo[4,3-a][1,4]diazepin-2-yl)ethynyl)-1H-pyrazol-1-yl)ethyl)azetidin-3-yl)methyl)amino)-1-oxoisoindolin-2-yl)piperidine-2,6-dione] | 0.35 | 1.5 | – | –
Cc1c(C#Cc2cnn(CCCN3CCN(c4cccc5c4C(=O)N(C4CCC(=O)NC4=O)C5=O)CC3)c2)sc2c1C(c1ccc(Cl)cc1)=N[C@@H](C)c1nnc(C)n1-2 (stereo partly drawn) [compound 178, 4-(4-(3-(4-(((S)-4-(4-chlorophenyl)-3,6,9-trimethyl-6H-thieno[3,2-f][1,2,4]triazolo[4,3-a][1,4]diazepin-2-yl)ethynyl)-1H-pyrazol-1-yl)propyl)piperazin-1-yl)-2-(2,6-dioxopiperidin-3-yl)isoindoline-1,3-dione] | 1 | 0.6 | – | –
Cc1c(C#Cc2cnn(CCCC#Cc3ccc4c(c3)CN(C3CCC(=O)NC3=O)C4=O)c2)sc2c1C(c1ccc(Cl)cc1)=N[C@@H](C)c1nnc(C)n1-2 (stereo partly drawn) [compound 179, 3-(5-(5-(4-(((S)-4-(4-chlorophenyl)-3,6,9-trimethyl-6H-thieno[3,2-f][1,2,4]triazolo[4,3-a][1,4]diazepin-2-yl)ethynyl)-1H-pyrazol-1-yl)pent-1-yn-1-yl)-1-oxoisoindolin-2-yl)piperidine-2,6-dione] | 0.9 | 0.2 | – | –
Cc1c(C#Cc2cnn(CCCCCc3ccc4c(c3)CN(C3CCC(=O)NC3=O)C4=O)c2)sc2c1C(c1ccc(Cl)cc1)=N[C@@H](C)c1nnc(C)n1-2 (stereo partly drawn) [compound 180, 3-(5-(5-(4-(((S)-4-(4-chlorophenyl)-3,6,9-trimethyl-6H-thieno[3,2-f][1,2,4]triazolo[4,3-a][1,4]diazepin-2-yl)ethynyl)-1H-pyrazol-1-yl)pentyl)-1-oxoisoindolin-2-yl)piperidine-2,6-dione] | 0.2 | 0.04 | – | –
Cc1c(C#Cc2ccc(CCC#Cc3cccc4c3CN(C3CCC(=O)NC3=O)C4=O)cn2)sc2c1C(c1ccc(Cl)cc1)=NCc1nnc(C)n1-2 (stereo not drawn) [compound 181, 3-(4-(4-(6-((4-(4-chlorophenyl)-3,9-dimethyl-6H-thieno[3,2-f][1,2,4]triazolo[4,3-a][1,4]diazepin-2-yl)ethynyl)pyridin-3-yl)but-1-yn-1-yl)-1-oxoisoindolin-2-yl)piperidine-2,6-dione] | > 1000 | 532 | – | –
Cc1c(C#Cc2ccc(CCC#Cc3cccc4c3CN(C3CCC(=O)NC3=O)C4=O)cn2)sc2c1C(c1ccc(Cl)cc1)=N[C@@H](C)c1nnc(C)n1-2 (stereo partly drawn) [compound 182, 3-(4-(4-(6-(((S)-4-(4-chlorophenyl)-3,6,9-trimethyl-6H-thieno[3,2-f][1,2,4]triazolo[4,3-a][1,4]diazepin-2-yl)ethynyl)pyridin-3-yl)but-1-yn-1-yl)-1-oxoisoindolin-2-yl)piperidine-2,6-dione] | 2.8 | 1.7 | – | –
Cc1c(C#Cc2cnn(CCN3CCN(c4cccc5c4C(=O)N(C4CCC(=O)NC4=O)C5=O)CC3)c2)sc2c1C(c1ccc(Cl)cc1)=N[C@@H](C)c1nnc(C)n1-2 (stereo partly drawn) [compound 183, 4-(4-(2-(4-(((S)-4-(4-chlorophenyl)-3,6,9-trimethyl-6H-thieno[3,2-f][1,2,4]triazolo[4,3-a][1,4]diazepin-2-yl)ethynyl)-1H-pyrazol-1-yl)ethyl)piperazin-1-yl)-2-(2,6-dioxopiperidin-3-yl)isoindoline-1,3-dione] | 0.8 | 0.3 | – | –
Cc1c(C#Cc2cnn(CCCCNc3ccc4c(c3)CN(C3CCC(=O)NC3=O)C4=O)c2)sc2c1C(c1ccc(Cl)cc1)=N[C@@H](C)c1nnc(C)n1-2 (stereo partly drawn) [compound 184, 3-(5-((4-(4-(((S)-4-(4-chlorophenyl)-3,6,9-trimethyl-6H-thieno[3,2-f][1,2,4]triazolo[4,3-a][1,4]diazepin-2-yl)ethynyl)-1H-pyrazol-1-yl)butyl)amino)-1-oxoisoindolin-2-yl)piperidine-2,6-dione] | 0.5 | 0.1 | – | –
